This passage reports IC50 results from publication PMC3662054 (Journal of biological inorganic chemistry : JBIC : a …, 2012).

Broadly, the IC50 is the concentration that inhibits the measured activity by half.

This assay has as its target T1, 20S proteasome (chymotrypsin-like activity) (Homo sapiens, UniProt P28074).
T1 sequence (P28074 60-263): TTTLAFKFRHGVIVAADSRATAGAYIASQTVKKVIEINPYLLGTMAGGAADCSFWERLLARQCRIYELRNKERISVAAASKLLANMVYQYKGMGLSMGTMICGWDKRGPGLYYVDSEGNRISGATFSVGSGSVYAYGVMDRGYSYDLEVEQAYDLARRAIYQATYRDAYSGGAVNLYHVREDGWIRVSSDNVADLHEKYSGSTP
Briefly: fluorogenic Suc-LLVY-AMC hydrolysis by purified […] proteasome. Type of assay: biochemical.

The compound `O=C([O-])Cc1c[nH]c2ccccc12.O=C([O-])Cc1c[nH]c2ccccc12.O=C([O-])Cc1c[nH]c2ccccc12.O=C([O-])Cc1c[nH]c2ccccc12.[Cu+2].[Cu+2]` [compound 3, Complex 3] yielded an IC50 of 3 µM.
To `O=C([O-])CCc1c[nH]c2ccccc12.O=C([O-])CCc1c[nH]c2ccccc12.[Cu+2].c1cnc2c(c1)ccc1cccnc12` [compound 6, Complex 6] belongs 3.3 µM.
